From publication PMC13128454, “Mutant p53 protein accumulation is selectively targetable by proximity-inducing drugs” (Nature Chemical Biology, 2025)
“And” between values parts separate entries of the source, which are not always exact repeats. Equal entries are not always repeated. Where two headings read alike, the source gives them in different places.

Columns and labels:
Format in all cases: cell-based
[1] = tested on: p53 luciferase transcriptional reporter in MFE319 cells; experiment: p53 luciferase reporter assay; conditions: for p53 luciferase reporter signal (normalized), replicates: MFE319
Method: (§1) Huh7 and MFE319 cell lines stably expressing a p53 reporter (Addgene, 90363)[59] were generated. Cells were plated in 384-well plates (1,500 cells per well) and treated with varying concentrations of compound. Then, 16 h after treatment, firefly luciferase substrate was added to the cells and luminescence was monitored using an EnVision 2105 multimode plate reader.

[2] = tested on: p53 luciferase transcriptional reporter in Huh7 cells; experiment: p53 luciferase reporter assay; conditions: for p53 luciferase reporter signal (normalized), replicates: Huh7
Method: as §1

[3] = tested on: Halo–p53-Y220C ΔTAD–mCherry 293T cells; experiment: caspase 3/7 glo; conditions: for mean_norm (caspase 3/7 glo): Cell_Line Y220C, normalized to Concentration 0; for raw caspase 3/7 glo signal, single replicate: Y220C
Method: (§2) Cells were plated in 384-well plates (typically 1,500 cells per well) with varying concentrations of compounds with a total volume of 50 μl per well. After 1 day, caspase 3/7 glo reagent (Promega) was added following the manufacturer’s protocol and read out using an EnVision 2105 multimode plate reader.

[4] = tested on: parental 293T cells; experiment: caspase 3/7 glo; conditions: for mean_norm (caspase 3/7 glo): Cell_Line WT, normalized to Concentration 0; for raw caspase 3/7 glo signal, single replicate: WT
Method: as §2

[5] = tested on: Halo–p53-Y220C ΔTAD–mCherry 293T cells versus parental 293T cells; experiment: flow-cytometry growth competition; conditions: for EC50: Homo sapiens, HEK-293T; for normalized_mCherry_percentage: Y220C, day 8, normalized to DMSO
Method: (§3) Cells with and without a fluorescent marker (for example, Halo–p53–mCherry) were mixed and the resulting solution was plated in six-well plates or 10-cm dishes at low density; compound was added at varying concentrations. After reaching confluence, cells were passaged and retreated with compound if needed. Otherwise, cells were trypsinized, washed and resuspended in complete growth medium in 96-well plates or tubes for flow cytometry. Untreated cell mixtures were used to establish gates separating the fluorophore^+/− populations. Analysis was conducted on a CytoFLEX LX flow cytometer.

[6] = tested on: Calu-1 cells stably expressing Halo–p53-R273H (FL)–mCherry versus parental Calu-1 cells; experiment: flow-cytometry growth competition; conditions: 7 days
Method: as §3

[7] = tested on: MFE319 cells stably expressing sgTP53–Cas9–EGFP versus parental MFE319 cells; experiment: flow-cytometry growth competition
Method: as §3

[8] = CellTiter-Glo cell viability; conditions: human, BxPC-3 cells, BXPC3, 4 day, read-out: mean_norm (normalized viability)
Method: Cells were plated in 384-well plates (typically 1,500 cells per well) with varying concentrations of compounds, with a total volume of 50 μl per well. CTG reagent was added (25 μl) to the solutions, mixed and read out using an EnVision 2105 multimode plate reader.

CC[C@@H]1C(=O)N(C)c2cnc(Nc3ccc(C(=O)NCCOCCOCCOCCOCCC(=O)N4CCC(Nc5cccc6c5cc(C#CCNc5ccc(S(C)(=O)=O)cc5OC)n6CC(F)(F)F)CC4)cc3OC)nc2N1C1CCCC1 [p53-01, PMV6-PEG4-BI2536]
induction of p53 reporter ([1]; 16 h): no induction of luciferase activity
p53 luciferase reporter signal (normalized), replicates ([1]; log Concentration (pM) 4.59176): 0.9836 and 1.068 and 1.04 and 1.096 and 1.012 and 0.9977
p53 luciferase reporter signal (normalized), replicates ([1]; log Concentration (pM) 4.89279): 1.026 and 1.11 and 0.9977 and 0.9555 and 1.04 and 1.096
p53 luciferase reporter signal (normalized), replicates ([1]; log Concentration (pM) 5.19382): 0.9836 and 1.11 and 1.04 and 1.082 (2×) and 1.096
p53 luciferase reporter signal (normalized), replicates ([1]; log Concentration (pM) 5.49485): 0.9696 and 0.9977 and 1.012 (2×) and 1.082 and 1.04
p53 luciferase reporter signal (normalized), replicates ([1]; log Concentration (pM) 5.79588): 0.9696 and 1.096 (3×) and 1.068 and 0.9274
p53 luciferase reporter signal (normalized), replicates ([1]; log Concentration (pM) 6.09691): 1.152 and 1.068 and 1.012 (2×) and 1.124 and 1.04
p53 luciferase reporter signal (normalized), replicates ([1]; log Concentration (pM) 6.39794): 0.9977 (2×) and 1.068 and 1.096 and 1.012 and 0.9836
p53 luciferase reporter signal (normalized), replicates ([1]; log Concentration (pM) 6.69897): 1.012 (4×) and 0.9977 and 1.04
p53 luciferase reporter signal (normalized), replicates ([1]; log Concentration (pM) 7): 1.054 and 0.9836 (2×) and 1.082 (2×) and 0.8431
induction of p53 reporter ([2]; 16 h, PMV6 at doses of 1.25–10 μM): no such effect
p53 luciferase reporter signal (normalized), replicates ([2]; log Concentration (pM) 4.59176): 0.9363 (2×) and 1.029 and 0.989 (2×) and 0.8835
p53 luciferase reporter signal (normalized), replicates ([2]; log Concentration (pM) 4.89279): 1.081 and 0.9758 and 1.0022 and 1.095 and 1.147 and 0.9363
p53 luciferase reporter signal (normalized), replicates ([2]; log Concentration (pM) 5.19382): 0.8967 and 0.9231 and 0.9363 and 0.9758 and 1.095 and 1.081
p53 luciferase reporter signal (normalized), replicates ([2]; log Concentration (pM) 5.49485): 1.015 and 0.9363 and 1.029 and 1.0022 and 1.108 and 1.095
p53 luciferase reporter signal (normalized), replicates ([2]; log Concentration (pM) 5.79588): 1.055 (2×) and 1.095 and 0.9495 and 0.9231 (2×)
p53 luciferase reporter signal (normalized), replicates ([2]; log Concentration (pM) 6.09691): 0.9099 and 0.9626 and 0.9231 and 1.0022 and 0.9758 and 0.8835
p53 luciferase reporter signal (normalized), replicates ([2]; log Concentration (pM) 6.39794): 0.9495 and 1.029 and 0.9758 and 1.0022 and 1.015 and 1.042
p53 luciferase reporter signal (normalized), replicates ([2]; log Concentration (pM) 6.69897): 0.9363 and 0.9231 and 1.042 and 1.095 and 1.068 and 0.8835
p53 luciferase reporter signal (normalized), replicates ([2]; log Concentration (pM) 7): 0.9363 and 1.0022 (3×) and 1.015 and 0.9758
mean_norm (caspase 3/7 glo) ([3]; Concentration 19.5312): 1.044
mean_norm (caspase 3/7 glo) ([3]; Concentration 39.0625): 0.9705
mean_norm (caspase 3/7 glo) ([3]; Concentration 78.125): 0.9927
mean_norm (caspase 3/7 glo) ([3]; Concentration 156.25): 0.9639
mean_norm (caspase 3/7 glo) ([3]; Concentration 312.5): 0.9272
mean_norm (caspase 3/7 glo) ([3]; Concentration 625): 0.8899
mean_norm (caspase 3/7 glo) ([3]; Concentration 1250): 1.234
mean_norm (caspase 3/7 glo) ([3]; Concentration 2500): 2.011
mean_norm (caspase 3/7 glo) ([3]; Concentration 5000): 2.316
mean_norm (caspase 3/7 glo) ([3]; Concentration 10000): 2.222
raw caspase 3/7 glo signal, single replicate ([3]; Concentration 19.5312): 122690 and 136337 and 118028 and 144163
raw caspase 3/7 glo signal, single replicate ([3]; Concentration 39.0625): 117294 and 127747 and 106194 and 133419
raw caspase 3/7 glo signal, single replicate ([3]; Concentration 78.125): 123437 and 120512 and 118467 and 133301
raw caspase 3/7 glo signal, single replicate ([3]; Concentration 156.25): 105036 and 125984 and 107588 and 142722
raw caspase 3/7 glo signal, single replicate ([3]; Concentration 312.5): 120420 and 114761 and 112118 and 115705
raw caspase 3/7 glo signal, single replicate ([3]; Concentration 625): 92711 and 123269 and 91753 and 136660
raw caspase 3/7 glo signal, single replicate ([3]; Concentration 1250): 148294 and 147349 and 143892 and 176603
raw caspase 3/7 glo signal, single replicate ([3]; Concentration 2500): 271302 and 236256 and 229038 and 267460
raw caspase 3/7 glo signal, single replicate ([3]; Concentration 5000): 327582 and 262469 and 277595 and 289089
raw caspase 3/7 glo signal, single replicate ([3]; Concentration 10000): 286008 and 259961 and 264959 and 298921
induction of apoptosis ([3]; versus parental 293T, caspase 3/7 glo and annexin–PI, 1 day): differentially induced apoptosis
mean_norm (caspase 3/7 glo) ([4]; Concentration 19.5312): 1.032
mean_norm (caspase 3/7 glo) ([4]; Concentration 39.0625): 0.9788
mean_norm (caspase 3/7 glo) ([4]; Concentration 78.125): 1.009
mean_norm (caspase 3/7 glo) ([4]; Concentration 156.25): 0.9403
mean_norm (caspase 3/7 glo) ([4]; Concentration 312.5): 0.9336
mean_norm (caspase 3/7 glo) ([4]; Concentration 625): 0.8748
mean_norm (caspase 3/7 glo) ([4]; Concentration 1250): 1.007
mean_norm (caspase 3/7 glo) ([4]; Concentration 2500): 1.185
mean_norm (caspase 3/7 glo) ([4]; Concentration 5000): 1.4986
mean_norm (caspase 3/7 glo) ([4]; Concentration 10000): 1.763
raw caspase 3/7 glo signal, single replicate ([4]; Concentration 19.5312): 133494 and 117337 and 138819 and 114789
raw caspase 3/7 glo signal, single replicate ([4]; Concentration 39.0625): 123804 and 109630 and 139391 and 105438
raw caspase 3/7 glo signal, single replicate ([4]; Concentration 78.125): 123731 and 127401 and 120215 and 121439
raw caspase 3/7 glo signal, single replicate ([4]; Concentration 156.25): 127240 and 99863 and 130913 and 101408
raw caspase 3/7 glo signal, single replicate ([4]; Concentration 312.5): 120672 and 107314 and 116046 and 112110
raw caspase 3/7 glo signal, single replicate ([4]; Concentration 625): 120568 and 89735 and 125147 and 91991
raw caspase 3/7 glo signal, single replicate ([4]; Concentration 1250): 122108 and 116864 and 133954 and 118859
raw caspase 3/7 glo signal, single replicate ([4]; Concentration 2500): 139477 and 137713 and 153198 and 148518
raw caspase 3/7 glo signal, single replicate ([4]; Concentration 5000): 207130 and 170945 and 175970 and 178176
raw caspase 3/7 glo signal, single replicate ([4]; Concentration 10000): 233886 and 204323 and 214988 and 207998
mCherry_percent ([5]; 1 uM, 8 days, untreated 39.76): 6.93%
Emax, decline in the mCherry^+ fraction ([5]; 8-day competition): 21.5 fold
EC50 ([5]; 192 h, 8-day competition, read-out: EC50 growth competition): 443 nM
EC50 ([5]; 240 h, growth competition analyzed on day 10, n = 3, read-out: Competition EC50): 850 nM
normalized_mCherry_percentage ([5]; 62.5 nM): 97.27%
normalized_mCherry_percentage ([5]; 125 nM): 95.36%
normalized_mCherry_percentage ([5]; 250 nM): 82.43%
normalized_mCherry_percentage ([5]; 500 nM): 42.51%
normalized_mCherry_percentage ([5]; 1 uM): 16.67%
normalized_mCherry_percentage ([5]; 2 uM): 4.655%
selection in growth competition ([5]; dosed between 250 nM and 2 μM, 8-day): strong selection against p53-Y220C^+ cells
mCherry^+ percentage in competition, replicate ([5]; p53-01 250 nM, untreated 28.89, 29.94, 29.02): 3.07 and 3.6 and 3.2
decline in mCherry^+ percentage ([5]; p53-01 alone at 250 nM): 8.9 fold
activity in competition [6]: did not observe any activity
merge_avg (growth competition, sheet 4H) ([7]; Concentration (pM) 156250): 0.9416
merge_avg (growth competition, sheet 4H) ([7]; Concentration (pM) 312500): 0.9268
merge_avg (growth competition, sheet 4H) ([7]; Concentration (pM) 600000): 0.9517
merge_avg (growth competition, sheet 4H) ([7]; Concentration (pM) 800000): 1.131
merge_avg (growth competition, sheet 4H) ([7]; Concentration (pM) 1000000): 1.205
merge_avg (growth competition, sheet 4H) ([7]; Concentration (pM) 1100000): 1.344
merge_avg (growth competition, sheet 4H) ([7]; Concentration (pM) 1250000): 1.624
enrichment of EGFP^+ (TP53-knockout) population ([7]; day 9, p53-01 at doses between 800 nM and 1.25 μM): significantly enrich an EGFP^+ population
viability at 4 day ([8]; Concentration 39.0625): 96%
viability at 4 day ([8]; Concentration 78.125): 94.9%
viability at 4 day ([8]; Concentration 156.25): 99%
viability at 4 day ([8]; Concentration 312.5): 91%
viability at 4 day ([8]; Concentration 10000): 44%
viability at 4 day ([8]; Concentration 20000): 25.6%
